The text below walks through data of publication PMC6789487, “Iminosugars: Effects of Stereochemistry, Ring Size, and N-Substituents on Glucosidase Activities” (Pharmaceuticals, 2019).

Values joined by “and” are separate entries in the source; they are usually repeats but may differ in a detail not shown here. Equal entries are not always repeated. Where two headings read alike, the source gives them in different places.

For assay [1], the target named is T1, α-glucosidase (from Saccharomyces cerevisiae) (Saccharomyces cerevisiae, UniProt P53341). Kind of assay: Yeast α-glucosidase inhibition, p-nitrophenyl α-D-glucopyranoside substrate, 96-well plate. Format: biochemical. The method, then: (§1) Biological assays: Yeast α-glucosidase (EC 3.2.1.20) and almond β-glucosidase (EC 3.2.1.21) activity was assessed using a 96-well plate assay. Assays contained 20 mM NaOAc at pH 6.8 (α-glucosidase) and pH 6.2 (β-glucosidase), 10 mM PIPES (piperazine-N,N′-bis(2-ethanesulfonic acid), 0.1 mM EDTA, α-glucosidase (5 μg/mL), β-glucosidase (6 μg/mL), and inhibitor (0.1–2 mM). Enzyme and inhibitor were equilibrated at 37 °C for 30 min. The reaction was initiated by the addition of p-nitrophenyl α-D-glucopyranoside (200 μM) or p-nitrophenyl β-D-glucopyranoside (200 μM), and then it was quenched with 100 μL of sodium carbonate 3.0 M after 25 min incubation at 37 °C. Assays were repeated in duplicate and data averaged.
T1 sequence (P53341 whole entry): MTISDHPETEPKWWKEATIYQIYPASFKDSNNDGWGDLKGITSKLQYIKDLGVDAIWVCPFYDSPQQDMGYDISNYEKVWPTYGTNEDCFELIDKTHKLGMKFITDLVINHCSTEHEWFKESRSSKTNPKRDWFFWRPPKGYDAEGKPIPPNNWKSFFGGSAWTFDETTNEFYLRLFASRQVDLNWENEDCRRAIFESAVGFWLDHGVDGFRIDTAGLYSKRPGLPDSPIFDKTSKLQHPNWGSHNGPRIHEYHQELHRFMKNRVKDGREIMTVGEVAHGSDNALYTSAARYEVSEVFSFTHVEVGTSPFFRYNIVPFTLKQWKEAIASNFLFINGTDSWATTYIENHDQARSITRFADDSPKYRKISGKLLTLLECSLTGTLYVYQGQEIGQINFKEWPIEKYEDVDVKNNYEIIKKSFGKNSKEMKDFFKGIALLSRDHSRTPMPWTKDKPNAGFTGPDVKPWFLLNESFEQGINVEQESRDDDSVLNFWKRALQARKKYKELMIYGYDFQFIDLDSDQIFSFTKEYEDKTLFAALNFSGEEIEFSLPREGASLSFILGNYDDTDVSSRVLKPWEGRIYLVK

Assay [2] has as its target almond β-glucosidase (EC 3.2.1.21). Kind of assay: Almond β-glucosidase inhibition, p-nitrophenyl β-D-glucopyranoside substrate, 96-well plate. The assay is classed as biochemical. As to conditions: β-Glucosidase from almonds; NI: no inhibition. The method, then: To broaden the scope of the analysis, β-glucosidase (almond) activity of the same set of compounds was conducted using the corresponding p-nitrophenyl β-D-glucopyranoside.
as §1

Assay [3] deals with T1, α-glucosidase (from Saccharomyces cerevisiae). The assay is described as follows: Yeast α-glucosidase inhibition, p-nitrophenyl α-D-glucopyranoside substrate, 96-well plate. Format: biochemical. As to conditions: tested concentration 15–2000 µM.
For the next assay, the system named is yeast α-glucosidase. As to conditions: at 1 mM; cited from earlier work.
The next assay relates to β-glucosidase. As to conditions: cited from earlier work; for % β-glucosidase inhibition: at 1 mM.
In assay [4] the test system is Bacillus stearothermophilus α-glucosidase. The arrangement: method as in PMID 9113331. As to conditions: cited from earlier work; for % α-glucosidase inhibition: tested at 1 mM in Bacillus stearothermophilus.
Where [5] appears, read: NI: no inhibition, read-out: Inhibition (µM) α-Glucosidase (IC50).
Setting [6] is: read-out: Inhibition (µM) α-Glucosidase (IC50), NI: no inhibition.

A word on the IC50: it is the point on the concentration scale where inhibition reaches its midpoint. As for `C#CCN1C[C@@H](O)[C@@H](O)[C@H](O)[C@@H]1CO` [26a, N-Propynyl-1,5-dideoxy-1,5-imino-L-gulitol], the half-inhibitory concentration (IC50) was over 2000 µM in assay [1] (setting [5]) and 1716 ± 12.8 µM in assay [2].

With `C#CCN1C[C@@H](O)[C@@H](O)[C@H](O)[C@H](O)C1` [26b, N-Propynyl-1,6-dideoxy-1,6-imino-D-mannitol], the IC50 in assay [1] (setting [5]) and in assay [2] was over 2000 µM throughout.

As to `CCCCN1C[C@@H](O)[C@@H](O)[C@H](O)[C@@H]1CO` [27a, N-Butyl-1,5-dideoxy-1,5-imino-L-gulitol], the concentration for half-maximal inhibition (IC50) in assay [1] (setting [6]) was over 2000 µM.

Take `CCCCN1C[C@@H](O)[C@@H](O)[C@H](O)[C@H](O)C1` [27b, N-Butyl-1,6-dideoxy-1,6-imino-D-mannitol]: in assay [2], the IC50 is 184 µM and 185 µM.

Take `OCCN1C[C@@H](O)[C@@H](O)[C@H](O)[C@@H]1CO` [28a, N-Hydroxyethyl-1,5-dideoxy-1,5-imino-L-gulitol]: the IC50 in assay [1] (setting [6]) and in assay [2] was over 2000 µM throughout.

Turning to `OCCN1C[C@@H](O)[C@@H](O)[C@H](O)[C@H](O)C1` [28b, N-Hydroxyethyl-1,6-imino-D-mannitol], the IC50 in assay [1] (setting [5]) and in assay [2] was over 2000 µM in each case.

In the case of `OC[C@H]1[C@@H](O)[C@H](O)[C@H](O)CN1CCc1ccccc1` [29a, N-Phenethyl-1,5-dideoxy-1,5-imino-L-gulitol], the half-inhibitory concentration (IC50) in assay [1] (setting [5]) and in assay [2] was over 2000 µM throughout.

`O[C@H]1[C@H](O)[C@H](O)CN(CCc2ccccc2)C[C@H]1O` [29b, N-Phenethyl-1,6-dideoxy-1,6-imino-D-mannitol]: the IC50 in assay [1] (setting [5]) and in assay [2] was over 2000 µM throughout.

As for `C#CCN1C[C@H](O)[C@@H](O)[C@H](O)[C@H]1CO` [39a, N-Propynyl-1,5-dideoxy-1,5-imino-D-glucitol], the “yeast α-glucosidase inhibition (in words)” value in assay [3] is “weak or no α-glucosidase inhibition”. The IC50 in assay [1] (setting [5]) was over 2000 µM; in assay [2], 636 ± 8.5 µM.

For `C#CCN1C[C@H](O)[C@@H](O)[C@H](O)[C@@H](O)C1` [39b, N-Propynyl-1,6-dideoxy-1,6-imino-L-iditol], in assay [3], the “yeast α-glucosidase inhibition (in words)” value was “weak or no α-glucosidase inhibition”. Further, the IC50 in assay [1] (setting [5]) was over 2000 µM; in assay [2], 3440 ± 70.6 µM.

Take `CCCCN1C[C@H](O)[C@@H](O)[C@H](O)[C@H]1CO` [40a, N-Butyl-1,5-dideoxy-1,5-imino-D-glucitol, reference compound]: the “yeast α-glucosidase inhibition (in words)” value in assay [3] was “weak or no α-glucosidase inhibition”. For the same compound, in assay [1] (setting [6]), the IC50 is over 2000 µM.

Take `CCCCN1C[C@H](O)[C@@H](O)[C@H](O)[C@@H](O)C1` [40b, N-Butyl-1,6-dideoxy-1,6-imino-L-iditol]: in the assay with yeast α-glucosidase, the “% inhibition, α-glucosidase” value is given as 14%. Also, the “yeast α-glucosidase inhibition (in words)” value in assay [3] is “weak or no α-glucosidase inhibition”. Further, the half-maximal inhibitory concentration (IC50) in assay [1] (setting [5]) was over 2000 µM; in assay [2], 80 ± 4.9 µM.

Regarding `OCCN1C[C@H](O)[C@@H](O)[C@H](O)[C@H]1CO` [41a, N-Hydroxyethyl-1,5-dideoxy-1,5-imino-D-glucitol, reference compound], the IC50 was 41 µM and 41.3 µM in assay [1] (Inhibition (µM) α-Glucosidase (IC50), NI: no inhibition); 4 ± 1.5 µM in assay [2].

`OCCN1C[C@H](O)[C@@H](O)[C@H](O)[C@@H](O)C1` [41b, N-Hydroxyethyl-1,6-dideoxy-1,6-imino-L-iditol]: the IC50 in assay [1] (setting [5]) was 138 µM and 139 µM; in assay [2] it was 4 ± 1.4 µM.

For the compound `O[C@H]1[C@H](O)[C@H](O)CNC[C@H]1O` [D-manno-azepane, 1,6-dideoxy-1,6-imino-D-mannitol], the “% β-glucosidase inhibition” value in the assay on β-glucosidase is listed as 1%. The “% α-glucosidase inhibition” value in assay [4] is on record as 55%.

As usually defined, the Ki is the equilibrium dissociation constant of an inhibitor or competing ligand from its target. On to `OC[C@H]1NC[C@H](O)[C@@H](O)[C@@H]1O` [DNJ, 1-deoxynojirimycin, reference compound], for which the Ki was […] at β-glucosidase and 0.44 µM in assay [4] (Bacillus stearothermophilus α-glucosidase). Further, the IC50 in assay [2] was 33 µM and 33.1 µM.

For `OC[C@@H]1NC[C@@H](O)[C@@H](O)[C@@H]1O` [nonsubstituted L-gulo-piperidine, 1-deoxy-L-gulo-nojirimycin], in the assay with β-glucosidase, the “% β-glucosidase inhibition” value is reported as […]. The “% α-glucosidase inhibition” value in assay [4] is reported as 30%.
